{"source": "paper PMC10349806", "about": "(Nature Communications, 2023)", "key": {"PfCRT variant R374A": {"tested_on": "PfCRT variant R374A", "experiment": "CQ uptake assay, oocytes expressing R374A", "type": "cell-based, Plasmodium falciparum", "method": "(§1) Site-directed mutagenesis of PfCRT^Dd2 was performed as described using the megaprimer method with overlap extension[21],[54]. The primer pairs used are listed in Supplementary Table 6. Please note that a codon-optimized and oocyte-adapted version of PfCRT^Dd2 was used[22] (Supplementary Fig. 16). The resulting DNA fragment was cloned into the SP64T expression vector and verified by sequencing.\nOocytes were obtained as described previously. Briefly, adult (>2 years old) female X. laevis frogs (NASCO) were anesthetized in a cooled solution of ethyl 3-amino benzoate methanesulfonate (0.1%, w/v), followed by a surgical removal of parts of the ovary. The ovary lobes were carefully dissected and small pieces of oocytes were incubated in Ca^2+-free ND96 buffer (96 mM NaCl, 2 mM KCl, 1 mM MgCl2 buffered with 5 mM HEPES/NaOH, pH 7.5) supplemented with collagenase D (0.1%, w/v; Roche), BSA (0.5%, w/v), and 9 mm Na2HPO4 at 18 °C for 14-16 h while gentle shaking. After incubation, the oocytes were carefully washed several times with ND96 buffer (96 mM NaCl, 2 mM KCl, 1.8 mM CaCl2, 1 mM MgCl2 buffered with 5 mM HEPES/NaOH, pH 7.5) supplemented with 100 mg l^−1 gentamycin). Defolliculated and healthy-looking stage V-VI oocytes were manually selected for RNA microinjection. The RNA was generated as following: The codon-optimized sequences of PfCRT variants were cloned into the pSP64T expression vector. After vector linearization using the restriction endonucleases BamHI or SalI (New England Biolabs), transcription was performed using the in vitro SP6 mMessage mMachine Kit (Ambion)[34]. The obtained RNA was kept at −80 °C and diluted with nuclease-free water to a concentration of 0.6 μg μl^−1. […]\nDrug uptake assays were performed as described previously[21],[22],[24],[34]. […] The radioactivity of each sample was measured using a liquid scintillation analyzer Tri-Carb 4910 TR (PerkinElmer). Oocytes that were injected with water instead of RNA were analyzed in parallel, representing the uptake of a drug by diffusion and/or endogenous permeation pathways. […]"}, "PfCRT variant Y89A": {"target": "T1, PfCRT variant Y89A (Plasmodium falciparum, UniProt Q9N623, A220S/I356T/K76T/M74I/N326S/N75E/Q271E/R371I/Y89A)", "T1 sequence (Q9N623 1-424 M74I/N75E/K76T/Y89A/A220S/Q271E/N326S/I356T/R371I)": "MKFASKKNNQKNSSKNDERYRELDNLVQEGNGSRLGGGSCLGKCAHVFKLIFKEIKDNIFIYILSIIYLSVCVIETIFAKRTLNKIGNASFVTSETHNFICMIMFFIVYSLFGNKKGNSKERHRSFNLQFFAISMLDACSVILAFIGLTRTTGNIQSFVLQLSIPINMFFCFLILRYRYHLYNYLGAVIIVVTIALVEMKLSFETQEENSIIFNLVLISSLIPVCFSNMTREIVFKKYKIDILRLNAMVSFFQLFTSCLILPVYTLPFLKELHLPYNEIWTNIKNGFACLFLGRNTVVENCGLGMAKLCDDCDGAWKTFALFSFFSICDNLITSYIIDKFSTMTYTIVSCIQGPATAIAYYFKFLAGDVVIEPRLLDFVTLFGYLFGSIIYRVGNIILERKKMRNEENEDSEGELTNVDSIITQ", "experiment": "CQ uptake assay, oocytes expressing Y89A", "type": "cell-based", "method": "as §1\nOocytes were obtained as described previously. Briefly, adult (>2 years old) female X. laevis frogs (NASCO) were anesthetized in a cooled solution of ethyl 3-amino benzoate methanesulfonate (0.1%, w/v), followed by a surgical removal of parts of the ovary. The ovary lobes were carefully dissected and small pieces of oocytes were incubated in Ca^2+-free ND96 buffer (96 mM NaCl, 2 mM KCl, 1 mM MgCl2 buffered with 5 mM HEPES/NaOH, pH 7.5) supplemented with collagenase D (0.1%, w/v; Roche), BSA (0.5%, w/v), and 9 mm Na2HPO4 at 18 °C for 14-16 h while gentle shaking. After incubation, the oocytes were carefully washed several times with ND96 buffer (96 mM NaCl, 2 mM KCl, 1.8 mM CaCl2, 1 mM MgCl2 buffered with 5 mM HEPES/NaOH, pH 7.5) supplemented with 100 mg l^−1 gentamycin). Defolliculated and healthy-looking stage V-VI oocytes were manually selected for RNA microinjection. The RNA was generated as following: The codon-optimized sequences of PfCRT variants were cloned into the pSP64T expression vector. After vector linearization using the restriction endonucleases BamHI or SalI (New England Biolabs), transcription was performed using the in vitro SP6 mMessage mMachine Kit (Ambion)[34]. The obtained RNA was kept at −80 °C and diluted with nuclease-free water to a concentration of 0.6 μg μl^−1. Precision-bore glass capillary tubes (3.5-inch glass capillaries; Drummond Scientific Co.) were pulled on a vertical puller (P-87 Flaming/Brown micropipette puller, Sutter Instrument Co.), graduated, and placed on a microinjector (Nanoject II Auto-Nanoliter Injector, Drummond Scientific Co.). 50 nl of nuclease-free water alone (control oocytes) or 50 nl of 0.6 μg μl^−1 RNA were injected under stereomicroscopic control. Injected oocytes were incubated for 46–72 h at 18 °C with twice-daily buffer changes before usage in experiments.\nDrug uptake assays were performed as described previously[21],[22],[24],[34]. […] The direction of radio-labeled drug transport is here from the mostly acidic extracellular solution (pH 4.5 or 6.0, as indicated) into the oocyte cytosol (pH ∼ 7.2), which corresponds to the efflux of drug from the acidic digestive vacuole (pH 5.2) into the parasite cytoplasm (pH 7.2). The topology of PfCRT in the oolemma is such that both the N- and C-terminus face the extracellular milieu[3],[22]. In the parasite, the N- and C-terminus face the lumen of the digestive vacuole. […] For determination of the amount of drug uptake for each oocyte, the reaction medium was removed and the oocytes were washed three times with 2 ml of ice-cold ND96 buffer. Each oocyte was individually transferred to a scintillation vial containing 5% sodium dodecyl sulfate (200 μl) for lysis. […] Oocytes that were injected with water instead of RNA were analyzed in parallel, representing the uptake of a drug by diffusion and/or endogenous permeation pathways. […] The specific PfCRT-mediated uptake was determined by subtracting the corresponding background value measured in water-injected oocytes from that of PfCRT-expressing oocytes. […]"}}, "note": "Where “and” joins values, the source holds several entries; their conditions need not be identical. Identical values can stand only once.", "data": [{"smiles": "CCN(CC)CCCC(C)Nc1ccnc2cc(Cl)ccc12", "note": "(centres unmarked) [CQ, chloroquine]", "values": [{"measurement": "Activity at pH 4.5", "setting": "PfCRT variant R374A; 50 µM CQ, 1 h, mean ± SEM", "value": "0.90 ± 0.14", "unit": "pmol h-1 oocyte-1"}, {"measurement": "Activity at pH 6.0", "setting": "PfCRT variant R374A; 50 µM CQ, 1 h, mean ± SEM", "value": "3.81 ± 0.61", "unit": "pmol h-1 oocyte-1"}, {"measurement": "R-value", "setting": "PfCRT variant R374A; CQ transport at pH 4.5 / pH 6.0", "value": "0.23 ± 0.03"}, {"measurement": "Activity at pH 4.5", "setting": "PfCRT variant Y89A; Y89A, 50 µM CQ, 1 h, mean ± SEM", "value": "0.73 ± 0.05", "unit": "pmol h-1 oocyte-1"}, {"measurement": "R-value", "setting": "PfCRT variant Y89A; Y89A, CQ transport at pH 4.5 / pH 6.0", "value": "0.43 ± 0.06"}, {"measurement": "Y89A transport activity pH 4.5", "setting": "PfCRT variant Y89A; pH 4.5, single replicates, Fig 1d left", "value": "0.79 pmol oocyte-1 h-1 and 0.80 pmol oocyte-1 h-1 and 0.60 pmol oocyte-1 h-1"}, {"measurement": "Y89A R-value", "setting": "PfCRT variant Y89A; pH 4.5 vs pH 6.0, Fig 1d left", "value": "0.47 and 0.40 and 0.37"}, {"measurement": "Y89A transport activity pH 6.0", "setting": "PfCRT variant Y89A; pH 6.0, single replicates, Fig 1d left", "value": "1.68 pmol oocyte-1 h-1 and 1.99 pmol oocyte-1 h-1 and 1.64 pmol oocyte-1 h-1"}]}]}
